Patent US5021427A, “Novel pyrrolizidine alkaloid” (The Board of Regents, The University of Texas System, priority 1988, dated 1991)
Read-outs that look alike come from different tables or passages of the source.

Columns and labels:
alpha-mannosidase = biological target: T1, alpha-mannosidase (Canavalia ensiformis, UniProt C0HJB3); test: alpha-mannosidase inhibition; assay type: biochemical, jack bean
T1 construct: purchased Sigma Chemical Company

uninfected MDCK cells [1] = system: uninfected MDCK cells
Description: (§2) The cells then were incubated for 15-120 min with either [2-^3 H]mannose (20 micro Ci/ml) or [4,5-^3 H]leucine (10 micro Ci/ml) to label lipid-linked saccharides and cellular proteins, respectively. At the end of the labeling period, the medium was removed by aspiration, and the monolayers were washed 3 times with PB S. One ml of PBS was added to each well, the cells were dislodged by scraping, and were then quantitatively transferred to reaction tubes. Each well was washed with another 1 ml of PBS and this rinse was also added to the initial tube. […] For the incorporation of radiolabel into protein, cells were extracted with TCA at a final concentration of 20% in the presence of 500 micro g of bovine serum albumin. Following an overnight incubation at 4° C., precipitated protein was isolated by centrifugation. The precipitate was washed twice with 5% TCA, and once with absolute methanol, and then digested with Pronase as described above. Pronase-released radioactivity was measured by liquid scintillation counting.
(§3) Uninfected MDCK cells were grown in 6well Limbro tissue culture dishes.
(§4) confluency, australine was added to some wells to the final concentration
(§5) After a 2 hours incubation to allow the alkaloid to take
At the times shown, the medium
(§6) was removed by aspiration, and the monolayers were washed three times wit
(§7) PBS. The cells were released from the wells by scraping, placed in tubes,
(§8) and extracted with 20% TCA as described above. Radioactivity incorporated
(§9) into total cellular protein was determined after Pronase digestion by
liquid scintillation counting.

alpha-galactosidase = alpha-galactosidase inhibition; assay type: biochemical, Aspergillus niger
uninfected MDCK cells [2] = test: incorporation of [3H]mannose into lipid-linked saccharides
Description: (§10) The cells then were incubated for 15-120 min with either [2-^3 H]mannose (20 micro Ci/ml) or [4,5-^3 H]leucine (10 micro Ci/ml) to label lipid-linked saccharides and cellular proteins, respectively. At the end of the labeling period, the medium was removed by aspiration, and the monolayers were washed 3 times with PB S. One ml of PBS was added to each well, the cells were dislodged by scraping, and were then quantitatively transferred to reaction tubes. Each well was washed with another 1 ml of PBS and this rinse was also added to the initial tube. Radioactivity incorporated into lipid-linked monosaccharides and oligosaccharides was determined after extraction with chloroform:methanol:water (1:1:1) and chloroform:methanol:water (10:10:3), respectively, as previously described (60).
(§11) Uninfected MDCK cells were grown in 6well Limbro tissue culture dishes. A
as §4
(§12) listed above. After a 2 hour incubation to allow the alkaloid to take
(§13) effect, [^3 H]mannose was added to a final concentration of 20 micro
(§14) Ci/ml, and the incubations were continued. At the times shown, the medium
as §6, §7
(§15) then sequentially extracted with chloroform:methanol:water (1:1:1) for
(§16) lipidlinked monosaccharides, and chloroform:methanol:water (10:10:3) for
(§17) lipidlinked oligosaccharides. The total radioactivity incorporated into
(§18) the lipidlinked sugars was determined by liquid scintillation counting.

glucosidase I = test: processing glucosidase I, release of [3H]glucose from Glc3Man9GlcNAc; assay type: biochemical, mung bean
[3] = system: human immunodeficiency virus (HIV-1); test: replication of HIV-1 in tissue culture cells; assay type: cell-based
uninfected MDCK cells [4] = conditions: 50 micro g/ml, 60 min
Description: as §10, §11, §4, §12, §13, §14, §6, §7, §15, §16, §17, §18

amyloglucosidase = biological target: T2, amyloglucosidase (Aspergillus niger, UniProt P69328); test: amyloglucosidase (alpha-glucosidase) inhibition, p-nitrophenyl-alpha-D-glucoside substrate; assay type: biochemical
T2 construct: purchased Sigma Chemical Company

uninfected MDCK cells [5] = test: incorporation of [3H]leucine into protein (protein synthesis)
Description: as §2, §3, §4, §5
At the times shown, the medium
as §6, §7, §8, §9
liquid scintillation counting.

intestinal maltase = intestinal maltase activity, maltitol as substrate; assay type: biochemical
Description: (§1) (B) Sucrase and Maltase. Intestinal sucrase and maltase activities were determined by measuring the formation of reducing sugar from sucrose and maltitol, respectively. The reaction mixture contained 7.5 micromoles sodium citrate buffer, pH 6, 9 micromoles of substrate (sucrose or maltitol), and enzyme, in a final volume of 0.3 ml. […] For both enzymes, activity was proportional with time, and amount of protein. As described above for the arylglycosidases, inhibitors were preincubated with enzyme prior to the addition of substrate.

beta-galactosidase = beta-galactosidase inhibition; assay type: biochemical, bovine
beta-glucosidase = beta-glucosidase inhibition, p-nitrophenyl-glycoside substrate; assay type: biochemical, almonds
Beta-Mannosidase = Beta-Mannosidase (Aspergillus niger, UniProt Q9UUZ3); test: beta-mannosidase inhibition; assay type: biochemical
intestinal sucrase = biological target: T3, intestinal sucrase (Homo sapiens, UniProt P14410); test: intestinal sucrase activity, sucrose as substrate; assay type: biochemical
T3 construct: from tissue
Description: as §1

[6] = system: influenza virus glycoproteins in infected MDCK cells; test: glycoprotein processing in influenza virus-infected MDCK cells (Endo H-sensitive oligosaccharides); conditions: mannose-labeled glycopeptide, printed as 10 micro g/ml
glucosidase II = test: processing glucosidase II, release of p-nitrophenol from p-nitrophenyl-alpha-D-glucoside; assay type: biochemical, mung bean
[7] = system: influenza virus glycoproteins in infected MDCK cells; conditions: cited from earlier work
glycosidases = test: glycosidase inhibitory activity against generally available glycosidases; assay type: biochemical
Excerpt: GENERAL EX[…]. The alkaloids were monitored for purity by tlc on 0.25 mm silica gel plates developed with CHCl3 :MeOH:HN4 OH:H2 O (70:26:2:2) and detected by spraying with acetic anhydride followed by Ehrlich's reagent (21). Homogeneity was also checked by gc of the TMS derivatives, prepared by treatment with MSTFA in pyridine, on a Hewlett-Packard 5830 instrument equipped with a flame-ionization detector, on-column injector, and a 30-m×0.32-mm i.d. SE-30 fused silica column. Low resolution electron and ammonia chemical ionization mass spectra were obtained on a VG Micromass 7070 mass spectrometer; high resolution mass measurements were determined on the same instrument. Optical rotations were measured in a 1-dm cell on a Perkin-Elmer 241 automatic polarimeter. Nuclear magnetic resonance spectra were determined in D2 O on a Nicolet NTC 200FT spectrometer with software package at 200 MHz (^1 H) and at 50.3 MHz (^13 C) using 3-(trimethylsilyl)-1-propanesulfonic acid (TSP) as an internal standard. Multiplicities for ^13 C signals were determined by application of the carbon attached proton test (CAPT) sequence. Preparative centrifugal tlc was performed on a Chromatotron Model 7924 (Harrison Research, Palo Alto, Calif.). Enzyme assay methods have been previously described (67), Melting points are uncorrected.

[8] = concentrations up to 500 micro M

T2 sequence (P69328 25-640): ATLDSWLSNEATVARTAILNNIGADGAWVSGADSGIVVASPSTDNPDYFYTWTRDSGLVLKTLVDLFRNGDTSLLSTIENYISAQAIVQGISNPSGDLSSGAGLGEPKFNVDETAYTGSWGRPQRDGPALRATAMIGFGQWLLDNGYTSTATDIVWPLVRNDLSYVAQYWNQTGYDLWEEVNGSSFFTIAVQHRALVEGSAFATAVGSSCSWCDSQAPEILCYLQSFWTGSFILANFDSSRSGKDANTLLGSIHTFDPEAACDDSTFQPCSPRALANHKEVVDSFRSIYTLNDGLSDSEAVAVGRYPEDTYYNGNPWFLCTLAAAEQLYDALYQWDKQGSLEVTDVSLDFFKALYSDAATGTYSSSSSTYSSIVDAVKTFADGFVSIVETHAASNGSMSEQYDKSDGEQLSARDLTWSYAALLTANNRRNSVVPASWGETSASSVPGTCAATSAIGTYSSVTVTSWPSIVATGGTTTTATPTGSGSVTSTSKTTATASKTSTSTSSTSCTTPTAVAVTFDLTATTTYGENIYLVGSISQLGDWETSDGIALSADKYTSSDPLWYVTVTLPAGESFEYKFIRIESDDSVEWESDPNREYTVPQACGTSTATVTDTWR
T1 sequence (C0HJB3 whole entry): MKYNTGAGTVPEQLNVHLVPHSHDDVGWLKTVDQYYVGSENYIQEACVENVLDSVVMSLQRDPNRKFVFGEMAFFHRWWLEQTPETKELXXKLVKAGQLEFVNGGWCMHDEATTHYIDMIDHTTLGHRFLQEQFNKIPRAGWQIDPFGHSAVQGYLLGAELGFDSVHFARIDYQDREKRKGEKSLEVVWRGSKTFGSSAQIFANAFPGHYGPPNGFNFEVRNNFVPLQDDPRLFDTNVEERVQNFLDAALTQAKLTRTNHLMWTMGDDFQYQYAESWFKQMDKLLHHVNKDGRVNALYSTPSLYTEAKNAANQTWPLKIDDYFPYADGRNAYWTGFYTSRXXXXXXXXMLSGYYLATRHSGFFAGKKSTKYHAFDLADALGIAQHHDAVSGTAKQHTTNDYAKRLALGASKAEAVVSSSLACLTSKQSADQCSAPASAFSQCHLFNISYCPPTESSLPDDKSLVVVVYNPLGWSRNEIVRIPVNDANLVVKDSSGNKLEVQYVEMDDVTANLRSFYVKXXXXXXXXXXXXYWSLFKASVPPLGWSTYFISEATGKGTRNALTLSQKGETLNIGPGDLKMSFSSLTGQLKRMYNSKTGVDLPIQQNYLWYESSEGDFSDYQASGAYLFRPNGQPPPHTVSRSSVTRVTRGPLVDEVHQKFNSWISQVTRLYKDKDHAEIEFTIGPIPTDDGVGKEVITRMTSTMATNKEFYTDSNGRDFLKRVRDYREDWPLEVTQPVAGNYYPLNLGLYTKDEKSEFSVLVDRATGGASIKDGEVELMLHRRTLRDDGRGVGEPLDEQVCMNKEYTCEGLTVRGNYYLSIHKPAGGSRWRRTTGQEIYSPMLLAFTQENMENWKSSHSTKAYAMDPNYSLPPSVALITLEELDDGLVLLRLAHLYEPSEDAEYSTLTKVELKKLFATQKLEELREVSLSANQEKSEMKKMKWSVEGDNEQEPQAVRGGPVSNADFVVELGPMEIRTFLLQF
Sequence of Beta-Mannosidase (Q9UUZ3 22-931): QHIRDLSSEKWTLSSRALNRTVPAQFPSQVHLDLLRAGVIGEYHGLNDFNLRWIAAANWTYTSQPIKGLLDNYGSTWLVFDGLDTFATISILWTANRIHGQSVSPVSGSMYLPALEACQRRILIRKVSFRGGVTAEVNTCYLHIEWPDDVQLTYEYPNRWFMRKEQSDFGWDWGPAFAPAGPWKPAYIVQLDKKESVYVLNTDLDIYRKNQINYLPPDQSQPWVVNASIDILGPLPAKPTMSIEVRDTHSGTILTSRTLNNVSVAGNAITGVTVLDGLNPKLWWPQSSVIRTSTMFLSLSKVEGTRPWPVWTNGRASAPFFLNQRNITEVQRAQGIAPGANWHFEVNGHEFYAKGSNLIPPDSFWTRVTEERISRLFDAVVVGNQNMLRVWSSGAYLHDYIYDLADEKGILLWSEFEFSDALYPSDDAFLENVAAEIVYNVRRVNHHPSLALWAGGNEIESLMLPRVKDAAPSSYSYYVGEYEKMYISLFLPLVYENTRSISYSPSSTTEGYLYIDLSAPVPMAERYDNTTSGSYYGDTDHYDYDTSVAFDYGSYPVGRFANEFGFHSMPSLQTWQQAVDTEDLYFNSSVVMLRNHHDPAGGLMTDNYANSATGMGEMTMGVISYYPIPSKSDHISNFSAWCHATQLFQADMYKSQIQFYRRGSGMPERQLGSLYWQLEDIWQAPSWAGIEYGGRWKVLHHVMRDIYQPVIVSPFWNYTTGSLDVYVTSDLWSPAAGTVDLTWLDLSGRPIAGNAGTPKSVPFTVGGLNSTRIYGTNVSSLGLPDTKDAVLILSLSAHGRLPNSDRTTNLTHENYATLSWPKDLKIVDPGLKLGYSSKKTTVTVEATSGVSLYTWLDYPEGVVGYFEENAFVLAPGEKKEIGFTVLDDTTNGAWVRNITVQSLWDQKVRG
T3 sequence (P14410 whole entry): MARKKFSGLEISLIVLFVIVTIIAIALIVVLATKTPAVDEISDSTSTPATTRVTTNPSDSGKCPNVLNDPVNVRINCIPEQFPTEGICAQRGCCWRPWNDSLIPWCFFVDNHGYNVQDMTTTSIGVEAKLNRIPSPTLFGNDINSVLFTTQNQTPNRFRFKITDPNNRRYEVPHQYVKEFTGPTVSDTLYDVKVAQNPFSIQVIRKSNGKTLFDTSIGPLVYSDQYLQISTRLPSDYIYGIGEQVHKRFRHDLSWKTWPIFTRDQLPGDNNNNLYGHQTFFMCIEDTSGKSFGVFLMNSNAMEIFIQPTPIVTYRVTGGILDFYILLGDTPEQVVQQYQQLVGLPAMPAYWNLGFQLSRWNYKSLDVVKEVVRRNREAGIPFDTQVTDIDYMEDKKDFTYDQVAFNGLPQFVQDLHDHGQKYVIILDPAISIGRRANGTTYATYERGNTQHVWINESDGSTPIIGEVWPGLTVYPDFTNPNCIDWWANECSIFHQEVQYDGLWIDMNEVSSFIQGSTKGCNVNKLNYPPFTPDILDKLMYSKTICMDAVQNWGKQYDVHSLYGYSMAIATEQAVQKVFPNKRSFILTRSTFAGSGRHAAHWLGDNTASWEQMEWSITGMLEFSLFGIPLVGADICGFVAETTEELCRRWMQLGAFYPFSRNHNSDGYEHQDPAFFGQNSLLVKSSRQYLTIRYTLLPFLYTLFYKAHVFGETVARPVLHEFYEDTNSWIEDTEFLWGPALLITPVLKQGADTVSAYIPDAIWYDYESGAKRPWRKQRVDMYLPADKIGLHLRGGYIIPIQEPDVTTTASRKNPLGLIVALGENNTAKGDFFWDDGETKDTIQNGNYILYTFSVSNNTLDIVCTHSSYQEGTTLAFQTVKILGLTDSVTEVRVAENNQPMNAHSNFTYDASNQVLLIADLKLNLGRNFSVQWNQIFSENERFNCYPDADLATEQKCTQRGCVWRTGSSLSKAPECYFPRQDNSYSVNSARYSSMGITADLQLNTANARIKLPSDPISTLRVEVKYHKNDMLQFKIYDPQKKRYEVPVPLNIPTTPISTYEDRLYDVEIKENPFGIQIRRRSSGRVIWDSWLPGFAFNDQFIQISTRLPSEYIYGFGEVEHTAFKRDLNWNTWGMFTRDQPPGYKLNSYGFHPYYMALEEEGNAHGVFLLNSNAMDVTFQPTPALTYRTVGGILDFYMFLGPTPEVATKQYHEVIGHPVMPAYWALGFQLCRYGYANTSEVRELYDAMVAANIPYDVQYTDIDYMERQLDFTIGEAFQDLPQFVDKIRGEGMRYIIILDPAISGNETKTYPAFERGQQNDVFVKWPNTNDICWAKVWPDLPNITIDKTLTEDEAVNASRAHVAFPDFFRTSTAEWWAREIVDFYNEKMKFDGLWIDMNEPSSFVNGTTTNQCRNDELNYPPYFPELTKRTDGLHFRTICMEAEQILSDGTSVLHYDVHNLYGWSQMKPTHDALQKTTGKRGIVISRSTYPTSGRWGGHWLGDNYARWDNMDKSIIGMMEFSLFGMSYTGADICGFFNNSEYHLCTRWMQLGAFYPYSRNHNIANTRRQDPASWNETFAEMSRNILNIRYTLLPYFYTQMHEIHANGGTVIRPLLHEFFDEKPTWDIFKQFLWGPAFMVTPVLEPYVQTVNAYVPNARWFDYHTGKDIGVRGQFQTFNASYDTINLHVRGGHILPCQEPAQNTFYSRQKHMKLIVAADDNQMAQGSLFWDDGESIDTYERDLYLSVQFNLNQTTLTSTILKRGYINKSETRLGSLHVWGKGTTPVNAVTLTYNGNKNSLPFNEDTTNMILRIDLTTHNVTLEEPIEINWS

SMILES: OC[C@@H]1[C@@H](O)[C@H](O)[C@H]2[C@@H](O)CCN21 [australine, (1R, 2R, 3R, 7S, 7aR)-3-hydroxymethyl-1,2,7-trihydroxypyrrolizidine]
- inhibition of alpha-mannosidase (alpha-mannosidase): No significant inhibition
- effect on alpha-mannosidase (alpha-mannosidase; [8]): no apparent effect
- Radioactivity incorporated into protein (uninfected MDCK cells [1]; 50 micro ug/ml, 30 min): 9252 cpm
- Radioactivity incorporated into protein (uninfected MDCK cells [1]; 100 micro ug/ml, 30 min): 8304 cpm
- Radioactivity incorporated into protein (uninfected MDCK cells [1]; 100 micro ug/ml, 60 min): 1588 cpm
- Radioactivity incorporated into protein (uninfected MDCK cells [1]; 100 micro ug/ml, 90 min): 25636 cpm
- Radioactivity incorporated into protein (uninfected MDCK cells [1]; 100 micro ug/ml, 120 min): 32008 cpm
- inhibition of alpha-galactosidase (alpha-galactosidase): No significant inhibition
- effect on alpha-galactosidase (alpha-galactosidase; [8]): no apparent effect
- incorporation of [3H]mannose into lipid-linked oligosaccharide (uninfected MDCK cells [2]; 50-500 micro g/ml): appeared to be stimulated
- Radioactivity, Lipid-linked monosaccharides (uninfected MDCK cells [2]; 50 micro g/ml, 15 min): 97 cpm
- Radioactivity, Lipid-linked oligosaccharides (uninfected MDCK cells [2]; 50 micro g/ml, 15 min): 1672 cpm
- Radioactivity, Lipid-linked monosaccharides (uninfected MDCK cells [2]; 50 micro g/ml, 30 min): 122 cpm
- Radioactivity, Lipid-linked oligosaccharides (uninfected MDCK cells [2]; 50 micro g/ml, 30 min): 5021 cpm
- Radioactivity, Lipid-linked monosaccharides (uninfected MDCK cells [2]; 50 micro g/ml, 60 min): 229 cpm
- Radioactivity, Lipid-linked monosaccharides (uninfected MDCK cells [2]; 100 micro g/ml, 15 min): 101 cpm
- Radioactivity, Lipid-linked oligosaccharides (uninfected MDCK cells [2]; 100 micro g/ml, 15 min): 2336 cpm
- Radioactivity, Lipid-linked monosaccharides (uninfected MDCK cells [2]; 100 micro g/ml, 30 min): 151 cpm
- Radioactivity, Lipid-linked oligosaccharides (uninfected MDCK cells [2]; 100 micro g/ml, 30 min): 5335 cpm
- Radioactivity, Lipid-linked monosaccharides (uninfected MDCK cells [2]; 100 micro g/ml, 60 min): 244 cpm
- Radioactivity, Lipid-linked oligosaccharides (uninfected MDCK cells [2]; 100 micro g/ml, 60 min): 1104 cpm
- Radioactivity, Lipid-linked monosaccharides (uninfected MDCK cells [2]; 250 micro g/ml, 15 min): 107 cpm
- Radioactivity, Lipid-linked oligosaccharides (uninfected MDCK cells [2]; 250 micro g/ml, 15 min): 2073 cpm
- Radioactivity, Lipid-linked monosaccharides (uninfected MDCK cells [2]; 250 micro g/ml, 30 min): 115 cpm
- Radioactivity, Lipid-linked oligosaccharides (uninfected MDCK cells [2]; 250 micro g/ml, 30 min): 5661 cpm
- Radioactivity, Lipid-linked monosaccharides (uninfected MDCK cells [2]; 250 micro g/ml, 60 min): 212 cpm
- Radioactivity, Lipid-linked oligosaccharides (uninfected MDCK cells [2]; 250 micro g/ml, 60 min): 995 cpm
- Radioactivity, Lipid-linked monosaccharides (uninfected MDCK cells [2]; 500 micro g/ml, 15 min): 96 cpm
- Radioactivity, Lipid-linked oligosaccharides (uninfected MDCK cells [2]; 500 micro g/ml, 15 min): 2957 cpm
- Radioactivity, Lipid-linked monosaccharides (uninfected MDCK cells [2]; 500 micro g/ml, 30 min): 178 cpm
- Radioactivity, Lipid-linked oligosaccharides (uninfected MDCK cells [2]; 500 micro g/ml, 30 min): 6167 cpm
- Radioactivity, Lipid-linked monosaccharides (uninfected MDCK cells [2]; 500 micro g/ml, 60 min): 236 cpm
- Radioactivity, Lipid-linked oligosaccharides (uninfected MDCK cells [2]; 500 micro g/ml, 60 min): 1108 cpm
- Ki (glucosidase I): ~20 µM
- inhibition of HIV-1 replication [3]: inhibited the growth of the virus, but this alkaloid was not as effective as an inhibitor as was castanospermine
- Radioactivity, Lipid-linked oligosaccharides (uninfected MDCK cells [4]): 1077 cpm
- Ki (amyloglucosidase; Example 2, p-nitrophenyl-alpha-D-glucoside substrate, read-out: apparent Ki): 5.8 µM
- type of inhibition (amyloglucosidase; Lineweaver-Burk, 0.5 and 1 micro g/ml australine): competitive
- Radioactivity incorporated into protein (uninfected MDCK cells [5]; 50 micro ug/ml, 60 min): 16572 cpm
- Radioactivity incorporated into protein (uninfected MDCK cells [5]; 50 micro ug/ml, 90 min): 23341 cpm
- Radioactivity incorporated into protein (uninfected MDCK cells [5]; 50 micro ug/ml, 120 min): 33704 cpm
- effect on overall rate of protein synthesis (uninfected MDCK cells [5]; 50 to 500 micro g/ml, times up to 120 min): little effect
- Radioactivity incorporated into protein (uninfected MDCK cells [5]; 250 micro ug/ml, 30 min): 8064 cpm
- Radioactivity incorporated into protein (uninfected MDCK cells [5]; 250 micro ug/ml, 60 min): 13604 cpm
- Radioactivity incorporated into protein (uninfected MDCK cells [5]; 250 micro ug/ml, 90 min): 27776 cpm
- Radioactivity incorporated into protein (uninfected MDCK cells [5]; 250 micro ug/ml, 120 min): 36140 cpm
- Radioactivity incorporated into protein (uninfected MDCK cells [5]; 500 micro ug/ml, 30 min): 9124 cpm
- Radioactivity incorporated into protein (uninfected MDCK cells [5]; 500 micro ug/ml, 60 min): 15648 cpm
- Radioactivity incorporated into protein (uninfected MDCK cells [5]; 500 micro ug/ml, 90 min): 26060 cpm
- Radioactivity incorporated into protein (uninfected MDCK cells [5]; 500 micro ug/ml, 120 min): 32704 cpm
- Ki (intestinal maltase): ~35 µM
- inhibition of beta-galactosidase (beta-galactosidase): No significant inhibition
- effect on beta-galactosidase (beta-galactosidase; [8]): no apparent effect
- inhibition of beta-glucosidase (beta-glucosidase): No significant inhibition
- inhibition of beta-glucosidase activity (beta-glucosidase; at 66 micro M): less than 5%
- inhibition of beta-mannosidase (Beta-Mannosidase): No significant inhibition
- effect on beta-mannosidase (Beta-Mannosidase; [8]): no apparent effect
- Ki (intestinal sucrase): ~28 µM
- Endo H-released proportion [6]: 55%
- activity against glucosidase II (glucosidase II; [8]): no activity

SMILES: O[C@H]1[C@H](O)[C@@H](O)CN2CC[C@H](O)[C@H]12 [castanospermine, reference compound]
- Ki (glucosidase I): ~1 µM
- Ki (amyloglucosidase; Example 1, read-out: Ki): 7.9 µM
- Ki (intestinal maltase): < 1 µM
- inhibition of beta-glucosidase (beta-glucosidase): inhibited
- IC50 (beta-glucosidase; read-out: level which inhibited 50% of the beta-glucosidase activity): 66 µM
- Ki (intestinal sucrase): < 1 µM
- concentration producing the same degree of inhibition (increased proportion of Endo H-susceptible glycopeptides) as 500 micro g/ml australine [7]: 10 micro g/ml
- inhibition of glucosidase II (glucosidase II): inhibited by micromolar amounts

SMILES: OC[C@H]1NCC[C@@H](O)[C@@H]1O [fagomine, 1,2,5-trideoxy-1,5-imino-D-arabino-hexitol, reference compound]
- inhibition of alpha-mannosidase (alpha-mannosidase): No significant glycosidase inhibitory activity
- inhibition of alpha-galactosidase (alpha-galactosidase): No significant glycosidase inhibitory activity
- glycosidase inhibitory activity (glycosidases): no inhibitory activity
- glycosidase inhibitory activity against alpha-glucosidase (amyloglucosidase; commercially available enzyme): No significant glycosidase inhibitory activity
- inhibition of beta-galactosidase (beta-galactosidase): No significant glycosidase inhibitory activity
- inhibition of beta-glucosidase (beta-glucosidase): No significant glycosidase inhibitory activity
- inhibition of beta-mannosidase (Beta-Mannosidase): No significant glycosidase inhibitory activity

SMILES: OC[C@@H]1[C@@H]2[C@H](O)CCN2C[C@H]1O [rosmarinecine]
- glycosidase inhibitory activity (glycosidases): lack glycosidase inhibitory activity
